Patent US20220023386A1, “METHOD FOR THE TREATMENT OR PREVENTION OF OSTEOARTHRITIS” (Chondropeptix B.V., priority 2016, published 2022)

Assays:
Experiment in all cases: Expression of OA chondrocyte phenotype marker genes by RT-qPCR after peptide exposure
Type in all cases: cell-based, human
[1] = tested on: OA articular chondrocytes; set-up: key to ADAMTS5 expression: [+] denotes a significantly increased expression of chondrogenic marker BAPX1/NKX3.2 or a decreased expression of OA chondrocyte phenotypic markers ALP, MMP13, ADAMTS5, COX2, COL10A and RUNX2 in OA articular chondrocytes, in comparison to untreated OA articular chondrocytes.; [−] denotes the absence of a significant effort or a significantly decreased expression of chondrogenic marker BAPX1/NKX3.2 or an increased expression of OA chondrocyte phenotypic markers ALP, MMP13, ADAMTS5, COX2, COL10A and RUNX2 in OA articular chondrocytes, in comparison to untreated OA articular chondrocytes; conditions: for suppression of the OA chondrocyte phenotype: independent of the tested concentration (1000, 100, 10 and 1 nM were tested); for ADAMTS5 expression: Table 3, N- and C-terminally truncated peptides, vs untreated OA articular chondrocytes
[2] = tested on: OA articular chondrocytes; set-up: key: [+] denotes a significantly increased expression of chondrogenic marker BAPX1/NKX3.2 or a decreased expression of OA chondrocyte phenotypic markers ALP, MMP13, ADAMTS5, COX2, COL10A and RUNX2 in OA articular chondrocytes, in comparison to untreated OA articular chondrocytes.; [−] denotes the absence of a significant effort or a significantly decreased expression of chondrogenic marker BAPX1/NKX3.2 or an increased expression of OA chondrocyte phenotypic markers ALP, MMP13, ADAMTS5, COX2, COL10A and RUNX2 in OA articular chondrocytes, in comparison to untreated OA articular chondrocytes; conditions: vs untreated OA articular chondrocytes
[3] = tested on: OA articular chondrocytes; set-up: key: [+] denotes a significantly increased expression of chondrogenic marker BAPX1/NKX3.2 or a decreased expression of OA chondrocyte phenotypic markers ALP, MMP13, ADAMTS5, COX2, COL10A and RUNX2 in OA articular chondrocytes, in comparison to untreated OA articular chondrocytes.; [−] denotes the absence of a significant effort or a significantly decreased expression of chondrogenic marker BAPX1/NKX3.2 or an increased expression of OA chondrocyte phenotypic markers ALP, MMP13, ADAMTS5, COX2, COL10A and RUNX2 in OA articular chondrocytes, in comparison to untreated OA articular chondrocytes; conditions: Table 2 (FIGS. 2-8), peptide 10 nM, 24 hours, vs untreated OA articular chondrocytes
Experimental: The action of 20-mer peptides (10 nM) of SEQ ID NO: 2-15 (peptides with 1 amino acids intervals (19 amino acid overlap)) and SEQ ID NO:49 on the expression of the indicated genes was determined on a validated pool of passage 2 OA human articular chondrocytes (n=18) and compared to full-length recombinant BMP-7 (1 nM). Samples were harvested after 24 hours and analyzed for indicated genes by RT-qPCR (corrected for 28S rRNA expression and relative to control conditions (no peptide exposure)). In the graphs, numbers on the x-axis represent individual peptides according to their SEQ ID NO:, error bars represent mean±SEM, statistical differences were calculated (one-way ANOVA with bonferroni correction) to control condition. *=p<0.05 lower than control condition for COL10A1, ALP, RUNX2, COX-2, MMP13 and ADAMTS5 and higher than control condition for BAPX1/NKX3.2. Random peptide is a peptide according to SEQ ID NO: 49 with amino acid sequence […].

[4] = Table 3, N- and C-terminally truncated peptides
[5] = Table 2 (FIGS. 2-8), peptide 10 nM, 24 hours

YAAYYSEGESAFPLNSYMNA (homo sapiens) [SEQ ID NO: 9]
suppression of the OA chondrocyte phenotype [1]: efficiently suppressed

35 (PEGYAAYYSEGESAFPLNSYMNATNHA; homo sapiens) [compound 35]
ADAMTS5 expression [1]: +
ALP expression [2, 4]: +
BAPX1/NKX3.2 expression [2, 4]: +
COL10A expression [2, 4]: +
COX-2 expression [2, 4]: +
MMP13 expression [2, 4]: +
RUNX2 expression [2, 4]: +

EGESAFPLNSYMNATNHAIV (homo sapiens) [SEQ ID NO: 15]
suppression of the OA chondrocyte phenotype [1]: efficiently suppressed

15 (EGESAFPLNSYMNATNHAIV; homo sapiens) [compound 15]
ADAMTS5 expression [3]: −
ALP expression [3]: −
BAPX1/NKX3.2 expression [3]: −
COL10A expression [3]: −
COX-2 expression [3]: −
RUNX2 expression [3]: +
MMP13 expression [2, 5]: −

WIIAPEGYAAYYSEGESAFP (homo sapiens) [SEQ ID NO: 2]
suppression of the OA chondrocyte phenotype [1]: efficiently suppressed

SEGESAFPLNSYMNATNHAI (homo sapiens) [SEQ ID NO: 14]
suppression of the OA chondrocyte phenotype [1]: efficiently suppressed

28 (YSEGESAFPLNSYMN; homo sapiens) [compound 28]
ADAMTS5 expression [1]: +
ALP expression [2, 4]: +
BAPX1/NKX3.2 expression [2, 4]: +
COL10A expression [2, 4]: +
COX-2 expression [2, 4]: +
MMP13 expression [2, 4]: +
RUNX2 expression [2, 4]: +

10 (AAYYSEGESAFPLNSYMNAT; homo sapiens) [compound 10]
ADAMTS5 expression [3]: +
ALP expression [3]: +
BAPX1/NKX3.2 expression [3]: +
COL10A expression [3]: +
COX-2 expression [3]: +
RUNX2 expression [3]: +
MMP13 expression [2, 5]: +

18 (PEGYAAYYSEGESAFPLNS; homo sapiens) [compound 18]
ADAMTS5 expression [1]: +
ALP expression [2, 4]: +
BAPX1/NKX3.2 expression [2, 4]: +
COL10A expression [2, 4]: +
COX-2 expression [2, 4]: +
MMP13 expression [2, 4]: −
RUNX2 expression [2, 4]: +

34 (APEGYAAYYSEGESAFPLNSYMNATNHA; homo sapiens) [compound 34]
ADAMTS5 expression [1]: +
ALP expression [2, 4]: +
BAPX1/NKX3.2 expression [2, 4]: +
COL10A expression [2, 4]: +
COX-2 expression [2, 4]: +
MMP13 expression [2, 4]: +
RUNX2 expression [2, 4]: +

32 (YSEGESAFPLNSYMNATNH; homo sapiens) [compound 32]
ADAMTS5 expression [1]: +
ALP expression [2, 4]: +
BAPX1/NKX3.2 expression [2, 4]: +
COL10A expression [2, 4]: +
COX-2 expression [2, 4]: +
MMP13 expression [2, 4]: +
RUNX2 expression [2, 4]: +

9 (YAAYYSEGESAFPLNSYMNA; homo sapiens) [compound 9]
ADAMTS5 expression [3]: +
ALP expression [3]: +
BAPX1/NKX3.2 expression [3]: +
COL10A expression [3]: +
COX-2 expression [3]: +
RUNX2 expression [3]: +
MMP13 expression [2, 5]: +

7 (EGYAAYYSEGESAFPLNSYM; homo sapiens) [compound 7]
ADAMTS5 expression [3]: +
ALP expression [3]: +
BAPX1/NKX3.2 expression [3]: +
COL10A expression [3]: +
COX-2 expression [3]: +
RUNX2 expression [3]: +

2 (WIIAPEGYAAYYSEGESAFP; homo sapiens) [compound 2]
ADAMTS5 expression [3]: −
ALP expression [3]: −
BAPX1/NKX3.2 expression [3]: −
COL10A expression [3]: −
COX-2 expression [3]: +
RUNX2 expression [3]: −
MMP13 expression [2, 5]: −

6 (PEGYAAYYSEGESAFPLNSY; homo sapiens) [compound 6]
ADAMTS5 expression [3]: +
ALP expression [3]: +
BAPX1/NKX3.2 expression [3]: +
COL10A expression [3]: +
COX-2 expression [3]: +
RUNX2 expression [3]: +
MMP13 expression [2, 5]: −

APEGYAAYYSEGESAFPLNS (homo sapiens) [SEQ ID NO: 5]
suppression of the OA chondrocyte phenotype [1]: efficiently suppressed

3 (IIAPEGYAAYYSEGESAFPL; homo sapiens) [compound 3]
ADAMTS5 expression [3]: −
ALP expression [3]: −
BAPX1/NKX3.2 expression [3]: −
COL10A expression [3]: −
COX-2 expression [3]: +
RUNX2 expression [3]: −
MMP13 expression [2, 5]: −

IAPEGYAAYYSEGESAFPLN (homo sapiens) [SEQ ID NO: 4]
suppression of the OA chondrocyte phenotype [1]: efficiently suppressed

YSEGESAFPLNSYMNATNHA (homo sapiens) [SEQ ID NO: 13]
suppression of the OA chondrocyte phenotype [1]: efficiently suppressed

YYSEGESAFPLNSYMNATNH (homo sapiens) [SEQ ID NO: 12]
suppression of the OA chondrocyte phenotype [1]: efficiently suppressed

IIAPEGYAAYYSEGESAFPL (homo sapiens) [SEQ ID NO: 3]
suppression of the OA chondrocyte phenotype [1]: efficiently suppressed

13 (YSEGESAFPLNSYMNATNHA; homo sapiens) [compound 13]
ADAMTS5 expression [3]: +
ALP expression [3]: +
BAPX1/NKX3.2 expression [3]: +
COL10A expression [3]: +
COX-2 expression [3]: +
RUNX2 expression [3]: +
MMP13 expression [2, 5]: +

AAYYSEGESAFPLNSYMNAT (homo sapiens) [SEQ ID NO: 10]
suppression of the OA chondrocyte phenotype [1]: efficiently suppressed

EGYAAYYSEGESAFPLNSYM (homo sapiens) [SEQ ID NO: 7]
suppression of the OA chondrocyte phenotype [1]: efficiently suppressed

5 (APEGYAAYYSEGESAFPLNS; homo sapiens) [compound 5]
ADAMTS5 expression [3]: +
ALP expression [3]: +
BAPX1/NKX3.2 expression [3]: +
COL10A expression [3]: +
COX-2 expression [3]: +
RUNX2 expression [3]: +
MMP13 expression [2, 5]: −

12 (YYSEGESAFPLNSYMNATNH; homo sapiens) [compound 12]
ADAMTS5 expression [3]: +
ALP expression [3]: +
BAPX1/NKX3.2 expression [3]: +
COL10A expression [3]: +
COX-2 expression [3]: +
RUNX2 expression [3]: +
MMP13 expression [2, 5]: +

4 (IAPEGYAAYYSEGESAFPLN; homo sapiens) [compound 4]
ADAMTS5 expression [3]: −
ALP expression [3]: −
BAPX1/NKX3.2 expression [3]: −
COL10A expression [3]: −
COX-2 expression [3]: +
RUNX2 expression [3]: −
MMP13 expression [2, 5]: −

AYYSEGESAFPLNSYMNATN (homo sapiens) [SEQ ID NO: 11]
suppression of the OA chondrocyte phenotype [1]: efficiently suppressed

11 (AYYSEGESAFPLNSYMNATN; homo sapiens) [compound 11]
ADAMTS5 expression [3]: +
ALP expression [3]: +
BAPX1/NKX3.2 expression [3]: +
COL10A expression [3]: +
COX-2 expression [3]: +
RUNX2 expression [3]: +
MMP13 expression [2, 5]: +

8 (GYAAYYSEGESAFPLNSYMN; homo sapiens) [compound 8]
ADAMTS5 expression [3]: +
ALP expression [3]: +
BAPX1/NKX3.2 expression [3]: +
COL10A expression [3]: +
COX-2 expression [3]: +
RUNX2 expression [3]: +
MMP13 expression [2, 5]: +

PEGYAAYYSEGESAFPLNSY (homo sapiens) [SEQ ID NO: 6]
suppression of the OA chondrocyte phenotype [1]: efficiently suppressed

14 (SEGESAFPLNSYMNATNHAI; homo sapiens) [compound 14]
ADAMTS5 expression [3]: −
ALP expression [3]: −
BAPX1/NKX3.2 expression [3]: −
COL10A expression [3]: −
COX-2 expression [3]: −
RUNX2 expression [3]: +
MMP13 expression [2, 5]: −
